Measured values reported in patent publication US8440842B2, “Antimicrobial compounds, their synthesis and their use for treatment of mammalian infections” (Leibniz-Institut fuer Naturstoff-Forschung und …, priority 2007, dated 2013).
≈ marks a conversion by molar mass, not a printed value.

Tests used:
[1] = test system: XTB strain (extremly resistant clinical isolate); assay: MIC and MBC, classical method (liquid Shkolnikova medium, Lowenstein-Jensen medium); type: cell-based, Mycobacterium tuberculosis
[2] = test system: HSRE resistant strain (multiresistant clinical isolate); assay: as above; type: cell-based, Mycobacterium tuberculosis

| Compound | MBC ([1]; Mycobacterium tuberculosis) [µg/mL] | MIC ([1]; Mycobacterium tuberculosis) [µg/mL] | MBC ([2]; Mycobacterium tuberculosis) [µg/mL] | MIC ([2]; Mycobacterium tuberculosis) [µg/mL] | MIC ([1]; X TB strain (extremly resistant)) | MIC ([2]; HSRE resistant strain (multiresistant)) |
| --- | --- | --- | --- | --- | --- | --- |
| CN(Cc1ccccc1)c1nc(=O)c2cc(C(F)(F)F)cc([N+](=O)[O-])c2s1 [Compound 5, 2-[Benzyl(methyl)amino]-8-nitro-6-(trifluoromethyl)-4H-1,3-benzothiazin-4-one] | 3.12 (≈ 7.89 µM) | 1.56 (≈ 3.95 µM) | 3.12 (≈ 7.89 µM) | 1.56 (≈ 3.95 µM) |  |  |
| O=c1nc(NCc2ccccc2)sc2c([N+](=O)[O-])cc(C(F)(F)F)cc12 [Compound 8, 2-(Benzylamino)-8-nitro-6-(trifluoromethyl)-4H-1,3-benzothiazin-4-one] | 1.56 (≈ 4.09 µM) | 0.78 (≈ 2.05 µM) | 1.56 (≈ 4.09 µM) | 0.78 (≈ 2.05 µM) |  |  |
| CN(Cc1ccccc1)c1nc(=O)c2cc(Cl)cc([N+](=O)[O-])c2s1 [Compound 10, 2-[Benzyl(methyl)amino]-6-chloro-8-nitro-4H-1,3-benzothiazin-4-one] | 0.39 (≈ 1.08 µM) | < 0.39 | 1.56 (≈ 4.31 µM) | 1.56 (≈ 4.31 µM) |  |  |
| NNC(=O)c1ccncc1 [Isoniazid (INH), Isoniazid, reference compound] |  |  |  |  | Not active | Not active |
